According to patent publication US20040247699A1, “Method for the prevention or treatment of overweight in mammals” (priority 2002, published 2004):

Assay: Effects on physical activity (ambulatory counts)
Settings: 12.5 mg caffeine per kg rat oral, period when rats are normally asleep
Description: In the study as described in example 1, the physical activity of the animals was determined by monitoring ambulatory counts.
The effects of caffeine on physical activity was tested in rats and compared to placebo (water). In a placebo controlled cross-over design as described in example 1, the effects of administration of either 12.5 mg caffeine per kg of rat or water on physical activity was determined. Physical activity of the animals was determined by monitoring ambulatory counts.
Results are shown as the average ambulatory counts per 26 minutes.

Cn1c(=O)c2c(ncn2C)n(C)c1=O [caffeine]
ambulatory counts per 26 minutes compared to placebo: ambulatory counts increase
